Measured values reported in PubChem BioAssay (NCI).
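Method: 48-hour compound exposure of cells in 96-well plates, five concentrations, linear interpolation of endpoints. TGI denotes the concentration required for complete inhibition of growth.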

Assays:
Experiment in all cases: DTP human tumour cell line panel, 48 h
RPMI-8226 leukemia = test system: RPMI-8226 leukemia
RXF 393 renal = test system: RXF 393 renal
MALME-3M melanoma = test system: MALME-3M melanoma
HCT-116 colon = test system: HCT-116 colon
CCRF-CEM leukemia = test system: CCRF-CEM leukemia
OVCAR-4 ovarian = test system: OVCAR-4 ovarian
DMS 114 small cell lung = test system: DMS 114 small cell lung
HOP-18 NSCLC = test system: HOP-18 NSCLC
SK-MEL-2 melanoma = test system: SK-MEL-2 melanoma
OVCAR-5 ovarian = test system: OVCAR-5 ovarian
LOX IMVI melanoma = test system: LOX IMVI melanoma
NCI-H226 lung = test system: NCI-H226 lung
UO-31 renal = test system: UO-31 renal
U251 CNS = test system: U251 CNS
786-0 renal = test system: 786-0 renal
K-562 leukemia = test system: K-562 leukemia
NCI-H460 lung = test system: NCI-H460 lung
SNB-75 CNS = test system: SNB-75 CNS
DMS 273 small cell lung = test system: DMS 273 small cell lung
HT29 colon = test system: HT29 colon
SNB-78 CNS = test system: SNB-78 CNS
M14 melanoma = test system: M14 melanoma
ACHN renal = test system: ACHN renal
UACC-62 melanoma = test system: UACC-62 melanoma
XF 498 CNS = test system: XF 498 CNS
IGROV1 ovarian = test system: IGROV1 ovarian
HCC-2998 colon = test system: HCC-2998 colon
A498 renal = test system: A498 renal
SK-OV-3 ovarian = test system: SK-OV-3 ovarian
HCT-15 colon = test system: HCT-15 colon
HL-60(TB) leukemia = test system: HL-60(TB) leukemia
OVCAR-8 ovarian = test system: OVCAR-8 ovarian
NCI-H522 lung = test system: NCI-H522 lung
SF-268 CNS = test system: SF-268 CNS
RXF-631 renal = test system: RXF-631 renal
SW-620 colon = test system: SW-620 colon
COLO 205 colon = test system: COLO 205 colon
TK-10 renal = test system: TK-10 renal
UACC-257 melanoma = test system: UACC-257 melanoma
SNB-19 CNS = test system: SNB-19 CNS
NCI-H23 lung = test system: NCI-H23 lung
OVCAR-3 ovarian = test system: OVCAR-3 ovarian
LXFL 529 NSCLC = test system: LXFL 529 NSCLC
A549 NSCLC = test system: A549 NSCLC
HOP-62 NSCLC = test system: HOP-62 NSCLC
KM20L2 colon = test system: KM20L2 colon
EKVX NSCLC = test system: EKVX NSCLC
SK-MEL-5 melanoma = test system: SK-MEL-5 melanoma
SK-MEL-28 melanoma = test system: SK-MEL-28 melanoma
SF-539 CNS = test system: SF-539 CNS
DLD-1 colon = test system: DLD-1 colon
SN12C renal = test system: SN12C renal
M19-MEL melanoma = test system: M19-MEL melanoma
KM12 colon = test system: KM12 colon
HOP-92 NSCLC = test system: HOP-92 NSCLC
MOLT-4 leukemia = test system: MOLT-4 leukemia
SF-295 CNS = test system: SF-295 CNS
CAKI-1 renal = test system: CAKI-1 renal
SR leukemia = test system: SR leukemia

In the case of `Cc1nc2c(nc1C)C(=O)C1=C(C2=O)C2C=CC1CC2`, the TGI (RPMI-8226 leukemia) is reported as 7.35 µM, the TGI (RXF 393 renal) is reported as 18.5 µM and the TGI (MALME-3M melanoma) is reported as 24.4 µM. The TGI (HCT-116 colon) was 3.12 µM, the TGI (CCRF-CEM leukemia) was 5.9 µM and the TGI (OVCAR-4 ovarian) was 3.5 µM. It also gave a TGI (DMS 114 small cell lung) of 3.71 µM, a TGI (HOP-18 NSCLC) of 30.2 µM and a TGI (SK-MEL-2 melanoma) of 29 µM. It also gave a TGI (OVCAR-5 ovarian) of 36.9 µM, a TGI (LOX IMVI melanoma) of 6.14 µM and a TGI (NCI-H226 lung) of 30.8 µM. The TGI (UO-31 renal) was 26.1 µM, the TGI (U251 CNS) was 10.1 µM and the TGI (786-0 renal) was 24.8 µM. The TGI (K-562 leukemia) was 6.15 µM, the TGI (NCI-H460 lung) was 39.8 µM and the TGI (SNB-75 CNS) was 61.6 µM. The TGI (DMS 273 small cell lung) was 29.8 µM, the TGI (HT29 colon) was 41.7 µM and the TGI (SNB-78 CNS) was 10.6 µM. The TGI (M14 melanoma) was 27.3 µM, the TGI (ACHN renal) was 24.9 µM and the TGI (UACC-62 melanoma) was 12.3 µM. It also gave a TGI (XF 498 CNS) of 14.5 µM, a TGI (IGROV1 ovarian) of 9.93 µM and a TGI (HCC-2998 colon) greater than 62.1 µM. It also gave a TGI (A498 renal) of 98.7 µM, a TGI (SK-OV-3 ovarian) greater than 96.3 µM and a TGI (HCT-15 colon) of 38.1 µM. The TGI (HL-60(TB) leukemia) was 4.26 µM, the TGI (OVCAR-8 ovarian) was 10.8 µM and the TGI (NCI-H522 lung) was 5.91 µM. For the same compound, the TGI (SF-268 CNS) was 12.3 µM, the TGI (RXF-631 renal) was 13.9 µM and the TGI (SW-620 colon) was 8.09 µM. The TGI (COLO 205 colon) was 29.8 µM, the TGI (TK-10 renal) was greater than 55.9 µM and the TGI (UACC-257 melanoma) was 14.5 µM. For the same compound, the TGI (SNB-19 CNS) was greater than 61.2 µM, the TGI (NCI-H23 lung) was 19.6 µM and the TGI (OVCAR-3 ovarian) was 17.3 µM. It also gave a TGI (LXFL 529 NSCLC) of 3.19 µM, a TGI (A549 NSCLC) of 41.5 µM and a TGI (HOP-62 NSCLC) of 53.9 µM. The TGI (KM20L2 colon) was 52.8 µM, the TGI (EKVX NSCLC) was 18.9 µM and the TGI (SK-MEL-5 melanoma) was 4.82 µM. For the same compound, the TGI (SK-MEL-28 melanoma) was 35.6 µM, the TGI (SF-539 CNS) was 26.9 µM and the TGI (DLD-1 colon) was 21.6 µM. It also gave a TGI (SN12C renal) of 32.4 µM, a TGI (M19-MEL melanoma) of 3.46 µM and a TGI (KM12 colon) of 33.3 µM. For the same compound, the TGI (HOP-92 NSCLC) was 4.48 µM, the TGI (MOLT-4 leukemia) was 5.38 µM and the TGI (SF-295 CNS) was 25 µM. It also gave a TGI (CAKI-1 renal) of 37.6 µM.
`[O-][n+]1c2cc3c(cc2[n+]([O-])c2c(O)cccc21)CN(CCN1CCOCC1)C3` gave a TGI (RPMI-8226 leukemia) of 71.7 µM, a TGI (RXF 393 renal) of 42.4 µM and a TGI (MALME-3M melanoma) greater than 100 µM. The TGI (HCT-116 colon) was 33.2 µM, the TGI (CCRF-CEM leukemia) was 47 µM and the TGI (OVCAR-4 ovarian) was greater than 100 µM. The TGI (DMS 114 small cell lung) was 25.4 µM, the TGI (HOP-18 NSCLC) was greater than 100 µM and the TGI (SK-MEL-2 melanoma) was 53 µM. It also gave a TGI (OVCAR-5 ovarian) greater than 100 µM, a TGI (NCI-H226 lung) greater than 100 µM and a TGI (UO-31 renal) of 40.9 µM. For the same compound, the TGI (U251 CNS) was 28.7 µM, the TGI (786-0 renal) was greater than 100 µM and the TGI (K-562 leukemia) was 54.2 µM. It also gave a TGI (NCI-H460 lung) of 28.1 µM, a TGI (SNB-75 CNS) greater than 100 µM and a TGI (DMS 273 small cell lung) greater than 100 µM. It also gave a TGI (HT29 colon) of 50.2 µM, a TGI (SNB-78 CNS) greater than 100 µM and a TGI (M14 melanoma) greater than 100 µM. The TGI (ACHN renal) was 66.9 µM, the TGI (UACC-62 melanoma) was 74.7 µM and the TGI (XF 498 CNS) was 33.5 µM. The TGI (IGROV1 ovarian) was 39.5 µM, the TGI (A498 renal) was greater than 100 µM and the TGI (SK-OV-3 ovarian) was 58.9 µM. It also gave a TGI (HCT-15 colon) greater than 100 µM, a TGI (HL-60(TB) leukemia) of 36.8 µM and a TGI (OVCAR-8 ovarian) of 32.5 µM. For the same compound, the TGI (NCI-H522 lung) was 19 µM, the TGI (SF-268 CNS) was 60.6 µM and the TGI (RXF-631 renal) was greater than 100 µM. It also gave a TGI (COLO 205 colon) of 30.5 µM, a TGI (TK-10 renal) greater than 100 µM and a TGI (UACC-257 melanoma) of 87.2 µM. It also gave a TGI (SNB-19 CNS) greater than 100 µM, a TGI (NCI-H23 lung) of 71 µM and a TGI (OVCAR-3 ovarian) of 50.8 µM. The TGI (LXFL 529 NSCLC) was 62.1 µM, the TGI (A549 NSCLC) was greater than 100 µM and the TGI (KM20L2 colon) was greater than 100 µM. For the same compound, the TGI (EKVX NSCLC) was 68 µM, the TGI (SK-MEL-5 melanoma) was greater than 100 µM and the TGI (SK-MEL-28 melanoma) was greater than 100 µM. The TGI (SN12C renal) was greater than 100 µM, the TGI (M19-MEL melanoma) was 49 µM and the TGI (KM12 colon) was 31.8 µM. The TGI (SR leukemia) was 7.83 µM, the TGI (HOP-92 NSCLC) was 32.3 µM and the TGI (MOLT-4 leukemia) was 26.9 µM. For the same compound, the TGI (SF-295 CNS) was 40 µM and the TGI (CAKI-1 renal) was greater than 100 µM.
For `Cc1cccc(-c2cc(=O)c3cc(C)c(C)c(C(=O)O)c3o2)c1`, the TGI (RPMI-8226 leukemia) was greater than 100 µM, the TGI (MALME-3M melanoma) was greater than 100 µM and the TGI (HCT-116 colon) was greater than 100 µM. For the same compound, the TGI (CCRF-CEM leukemia) was greater than 100 µM, the TGI (OVCAR-4 ovarian) was greater than 100 µM and the TGI (DMS 114 small cell lung) was greater than 100 µM. It also gave a TGI (HOP-18 NSCLC) greater than 100 µM, a TGI (SK-MEL-2 melanoma) greater than 100 µM and a TGI (OVCAR-5 ovarian) greater than 100 µM. For the same compound, the TGI (LOX IMVI melanoma) was greater than 100 µM, the TGI (NCI-H226 lung) was greater than 100 µM and the TGI (UO-31 renal) was greater than 100 µM. The TGI (U251 CNS) was greater than 100 µM, the TGI (786-0 renal) was greater than 100 µM and the TGI (K-562 leukemia) was greater than 100 µM. For the same compound, the TGI (NCI-H460 lung) was greater than 100 µM, the TGI (SNB-75 CNS) was greater than 100 µM and the TGI (DMS 273 small cell lung) was greater than 100 µM. The TGI (HT29 colon) was greater than 100 µM, the TGI (SNB-78 CNS) was greater than 100 µM and the TGI (M14 melanoma) was greater than 100 µM. The TGI (ACHN renal) was greater than 100 µM, the TGI (UACC-62 melanoma) was greater than 100 µM and the TGI (XF 498 CNS) was greater than 100 µM. For the same compound, the TGI (IGROV1 ovarian) was greater than 100 µM, the TGI (HCC-2998 colon) was greater than 100 µM and the TGI (SK-OV-3 ovarian) was greater than 100 µM. It also gave a TGI (HCT-15 colon) greater than 100 µM, a TGI (HL-60(TB) leukemia) greater than 100 µM and a TGI (OVCAR-8 ovarian) greater than 100 µM. The TGI (NCI-H522 lung) was greater than 100 µM, the TGI (RXF-631 renal) was greater than 100 µM and the TGI (SW-620 colon) was greater than 100 µM. It also gave a TGI (COLO 205 colon) greater than 100 µM, a TGI (TK-10 renal) greater than 100 µM and a TGI (UACC-257 melanoma) greater than 100 µM. For the same compound, the TGI (SNB-19 CNS) was greater than 100 µM, the TGI (NCI-H23 lung) was greater than 100 µM and the TGI (OVCAR-3 ovarian) was greater than 100 µM. It also gave a TGI (LXFL 529 NSCLC) greater than 100 µM, a TGI (A549 NSCLC) greater than 100 µM and a TGI (HOP-62 NSCLC) greater than 100 µM. The TGI (KM20L2 colon) was greater than 100 µM, the TGI (EKVX NSCLC) was greater than 100 µM and the TGI (SK-MEL-5 melanoma) was greater than 100 µM. For the same compound, the TGI (SK-MEL-28 melanoma) was greater than 100 µM, the TGI (SF-539 CNS) was greater than 100 µM and the TGI (DLD-1 colon) was greater than 100 µM. The TGI (SN12C renal) was greater than 100 µM, the TGI (M19-MEL melanoma) was greater than 100 µM and the TGI (KM12 colon) was greater than 100 µM. For the same compound, the TGI (SR leukemia) was greater than 100 µM, the TGI (HOP-92 NSCLC) was greater than 100 µM and the TGI (MOLT-4 leukemia) was greater than 100 µM. For the same compound, the TGI (SF-295 CNS) was greater than 100 µM and the TGI (CAKI-1 renal) was greater than 100 µM.
